The results in this text go back to patent US5629430A, “Trifluoromethylpyrroloindolecarboxylic acid ester and process for production thereof” (Kyorin Pharmaceutical Co., Ltd., priority 1992, dated 1997).

In brackets after ≈: the same amount, converted by molar mass.

The test relates to P388 mouse leukemia cells. The test can be described thus: Activity against tumor cell growth (P388, MTT, 72 h). Format: cell-based. To be noted: P388 mouse leukemia cells, 72 h, 37° C., MTT; read-out: IC50 (50% growth inhibition concentration). As for the experimental part:
Using a culture medium RPMI1640 supplemented with 10% inactivated bovine fetal serum, 2 mM glutamine, 100 μ/ml kanamycin sulfate, and 5 μM 2-hydroxyethyldisulfide (This culture medium is hereinafter referred to simply as "culture medium"), P388 mouse leukemia cells were diluted to a concentration of 1.5×10^5 cells/ml in the culture medium, and were placed in each well of 96-well multiplate in 60 μl portions. Separately, the test compound was dissolved in dimethylsulfoxide and was adequately diluted with the culture medium. The diluted solution containing test compound was added to the wells of the above plate respectively in 60 μl portions. Then the cells were incubated in a CO2 -incubator (5% CO2, 37° C.) for 72 hours.
The surviving cell numbers were measured according to the Mosmann's method (J. Immunol. Meth., 65 55-63, 1983) as follows. A 2.5 mg/ml solution of MTT (3-[4,5-dimethylthiazol-2-yl]-2,5-diphenyltetrazolium bromide) in Dulbecco's phosphate buffer solution (PBS) was prepared and added to each of the wells by 20 μl. The cells were further incubated for 3 hours. A 150 μl portion of 0.04N hydrochloric acid-isopropanol solution was added to each of the wells, and MTT-formazane formed was allowed to dissolve by pipetting. The absorbance of the solutions was measured at 540 nm taking the no-cell-containing [solution as the background. The 50% growth inhibition concentration (ICs50) was calculated from ratio of the absorbances of the treated samples to the absorbance of the no-medicine-treated sample, and from the concentration of the test compound.
Consider `COC(=O)c1c(C(F)(F)F)[nH]c2c(O)cc3c(c12)C(CCl)CN3C(=O)c1cc2cc(NC(=O)c3cc4ccccc4[nH]3)ccc2[nH]1` (centres unmarked) [Example 9, Methyl 1-chloromethyl-5-hydroxy-3-[5-[(1H-indol-2-ylcarbonyl)amino]-1H-indol-2-ylcarbonyl]-7-trifluoromethyl-1,2,3,6-tetrahydropyrrolo[3,2-e]indole-8-carboxylate], for which the IC50 is 0.76 ng/mL (≈ 1.17 nM). The result for `COC(=O)c1c(C(F)(F)F)[nH]c2c1C13CC1CN(C(=O)c1cc4cc(NC(=O)c5cc6cccc(OC)c6o5)ccc4[nH]1)C3=CC2=O` (centres unmarked) [Example 25, Methyl 2-[5-[(7-methoxybenzofuran-2-ylcarbonyl)amino]-1H-indol-2-ylcarbonyl]-6-trifluoromethyl-1,2,8,8a-tetrahydrocyclopropa[c]pyrrolo[3,2-e]indole-4 (5H)-one-7-carboxylate] reads 0.63 ng/mL (≈ 0.977 nM); that for `COC(=O)c1c(C(F)(F)F)[nH]c2c1C13CC1CN(C(=O)c1cc4cc(NC(=O)c5ccc6ccccc6c5)ccc4[nH]1)C3=CC2=O` (centres unmarked) [Example 29, Methyl 3-[5-[(naphthalene-3-ylcarbonyl)amino]1H-indol-2-ylcarbonyl]-6-trifluoromethyl-1,2,8,8a-tetrahydrocyclopropa[c]pyrrolo[3,2-e]indol-4 (5H)-one-7-carboxylate], 1.2 ng/mL (≈ 1.92 nM). The result for `COC(=O)c1c(C(F)(F)F)[nH]c2c1C13CC1CN(C(=O)c1cc4cc(NC(=O)c5cnc6ccccc6c5)ccc4[nH]1)C3=CC2=O` (centres unmarked) [Example 30, Methyl 3-[5-[(quinoline-3-ylcarbonyl)amino]-1H-indol-2-ylcarbonyl]-6-trifluoromethyl-1,2,8,8a-tetrahydrocyclopropa[c]pyrrolo[3,2-e]indol-4 (5H)-one-7-carboxylate] reads 0.22 ng/mL (≈ 0.352 nM); that for `COC(=O)c1c(C(F)(F)F)[nH]c2c1C13CC1CN(C(=O)c1cc4cc(NC(=O)c5cc6c(cn5)[nH]c5ccccc56)ccc4[nH]1)C3=CC2=O` (centres unmarked) [Example 33, Methyl 2-[5-[(9H-pyrido[3,4-b]indol-3-ylcarbonyl)amino]-1H-indol-2-ylcarbonyl]-6-trifluoromethyl-1,2,8,8a-tetrahydrocyclopropa[c]pyrrolo[3,2-e]indol-4 (5H)-one-7-carboxylate], 0.17 ng/mL (≈ 0.256 nM). The result for `COC(=O)c1c(C(F)(F)F)[nH]c2c(O)cc3c(c12)C(CBr)CN3C(=O)c1cc2cc(NC(=O)c3cc4cc(OC)c(OC)c(OC)c4[nH]3)ccc2[nH]1` (centres unmarked) [Example 39, Methyl 1-bromomethyl-5-hydroxy-7-trifluoromethyl-3-[5[(5,6,7-trimethoxy1H-indol-2-ylcarbonyl)amino]-1H-indol-2-ylcarbonyl]-1,2,3,6-tetrahydropyrrolo[3,2-e]indole-8-carboxylate] reads 0.2 ng/mL (≈ 0.255 nM). Turning to `COC(=O)c1c(C(F)(F)F)[nH]c2c(O)cc3c(c12)C(CBr)CN3C(=O)c1cc2cc(NC(=O)c3cc4c(OC)c(OC)c(OC)cc4[nH]3)ccc2[nH]1` (centres unmarked) [Example 40, Methyl 1-bromomethyl-5-hydroxy-7-trifluoromethyl-3-[5-[(4,5,6-trimethoxy1H-indol-2-ylcarbonyl)amino]-1H-indol-2-ylcarbonyl]-1,2,3,6-tetrahydropyrrolo[3,2-e]indole-8-carboxylate], the IC50 came out at 0.08 ng/mL (≈ 0.102 nM). The result for `COC(=O)c1c(C(F)(F)F)[nH]c2c(O)cc3c(c12)C(CBr)CN3C(=O)c1cc2cc(NC(=O)c3ccc4ccccc4c3)ccc2[nH]1` (centres unmarked) [Example 41, Methyl 1-bromomethyl-5-hydroxy-3-[5-[(naphthalene-3-ylcarbonyl)amino]-1H-indol-2-ylcarbonyl]-7-trifluoromethyl-1,2,3,6-tetrahydropyrrolo[3,2-e]indole-8-carboxylate] reads 1.6 ng/mL (≈ 2.27 nM); that for `COC(=O)c1c(C(F)(F)F)[nH]c2c(O)cc3c(c12)C(CBr)CN3C(=O)c1cc2cc(NC(=O)c3cnc4ccccc4c3)ccc2[nH]1` (centres unmarked) [Example 42, Methyl 1-bromomethyl-5-hydroxy-3-[5-[(quinoline-3-ylcarbonyl)amino]-1H-indol-2-ylcarbonyl]-7-trifluoromethyl-1,2,3,6-tetrahydropyrrolo[3,2-e]indole-8-carboxylate], 0.13 ng/mL (≈ 0.184 nM); that for `COC(=O)c1c(C(F)(F)F)[nH]c2c(O)cc3c(c12)C(CBr)CN3C(=O)c1cc2cc(NC(=O)c3cc4c(OC)c(OC)c(OC)cc4cn3)ccc2[nH]1` (centres unmarked) [Example 44, Methyl 1-bromomethyl-5-hydroxy-7-trifluoromethyl-3-[5-[(5,6,7-trimethoxyisoquinolin-3-ylcarbonyl)amino]-1H-indol-2-ylcarbonyl]-1,2,3,6-tetrahydropyrrolo[3,2-e]indole-8-carboxylate], 0.07 ng/mL (≈ 0.0879 nM).

Turning to `COC(=O)c1c(C(F)(F)F)[nH]c2c(O)cc3c(c12)C(CBr)CN3C(=O)c1cc2cc(NC(=O)c3cc4c(cn3)[nH]c3ccccc34)ccc2[nH]1` (centres unmarked) [Example 45, Methyl 1-bromomethyl-5-hydroxy-3-[5-[(9H-pyrido[3,4-b]indol-3-ylcarbonyl)amino]-1H-indol-2-ylcarbonyl]-7-trifluoromethyl-1,2,3,6-tetrahydropyrrolo[3,2-e]indole-8-carboxylate], the IC50 was 0.12 ng/mL (≈ 0.161 nM). With `COC(=O)c1c(C(F)(F)F)[nH]c2c(O)cc3c(c12)[C@H](CCl)CN3C(=O)c1cc2cc(NC(=O)OC(C)(C)C)ccc2[nH]1` [Example 64, Methyl (1S)-3-[5-(t-butoxycarbonyl)amino-1H-indol-2-ylcarbonyl]-1-chloromethyl-5-hydroxy-7-trifluoromethyl-1,2,3,6-tetrahydropyrrolo[3,2-e]indole-8-carboxylate], the IC50 was determined as 3.9 ng/mL (≈ 6.43 nM). As for `COC(=O)c1c(C(F)(F)F)[nH]c2c(O)cc3c(c12)[C@H](CCl)CN3C(=O)c1cc2cc(NC(=O)CN(C)C)ccc2[nH]1` [Example 65, Methyl (1S)-1-chloromethyl-3-[5 (dimethylaminomethylcarbonyl)amino-1H-indol-2-ylcarbonyl]-5-hydroxy-7-trifluoromethyl-1,2,3,6-tetrahydropyrrolo[3,2-e]indole-8-carboxylate], the IC50 came out at 0.11 ng/mL (≈ 0.186 nM). The result for `COC(=O)c1c(C(F)(F)F)[nH]c2c(O)cc3c(c12)[C@H](CCl)CN3C(=O)c1cc2c(OC)cccc2o1` [Example 66, Methyl (1S)-1-chloromethyl-5-hydroxy-3-(4-methoxybenzofuran-2-ylcarbonyl)-7-trifluoromethyl-1,2,3,6-tetrahydropyrrolo[3,2-e]indole-8-carboxylate] reads 0.77 ng/mL (≈ 1.47 nM); that for `COC(=O)c1c(C(F)(F)F)[nH]c2c(O)cc3c(c12)[C@H](CCl)CN3C(=O)c1cc2cc(OC)ccc2o1` [Example 67, Methyl (1S)-1-chloromethyl-5-hydroxy-3-(5-methoxybenzofuran-2-ylcarbonyl)-7-trifluoromethyl-1,2,3,6-tetrahydropyrrolo[3,2-e]indole-8-carboxylate], 0.026 ng/mL (≈ 0.0497 nM). The result for `COC(=O)c1c(C(F)(F)F)[nH]c2c(O)cc3c(c12)[C@H](CCl)CN3C(=O)c1cc2ccc(OC)cc2o1` [Example 68, Methyl (1S)-1-chloromethyl-5-hydroxy-3-(6-methoxybenzofuran-2-ylcarbonyl)-7-trifluoromethyl-1,2,3,6-tetrahydropyrrolo[3,2-e]indole-8-carboxylate] reads 0.051 ng/mL (≈ 0.0975 nM); that for `COC(=O)c1c(C(F)(F)F)[nH]c2c(O)cc3c(c12)[C@H](CCl)CN3C(=O)c1cc2cc(OC)c(OC)c(OC)c2o1` [Example 69, Methyl (1S)-1-chloromethyl-5-hydroxy-7-trifluoromethyl-3-(5,6,7-trimethoxybenzofuran-2-ylcarbonyl)-1,2,3,6-tetrahydropyrrolo[3,2-e]indole-8-carboxylate], 0.046 ng/mL (≈ 0.0789 nM). The result for `COC(=O)c1c(C(F)(F)F)[nH]c2c(O)cc3c(c12)[C@H](CCl)CN3C(=O)c1cc2cccc(OC)c2o1` [Example 70, Methyl (1S)-1-chloromethyl-5-hydroxy-3-(7-methoxybenzofuran-2-ylcarbonyl)-7-trifluoromethyl-1,2,3,6-tetrahydropyrrolo[3,2-e]indole-8-carboxylate] reads 2 ng/mL (≈ 3.83 nM); that for `COC(=O)c1c(C(F)(F)F)[nH]c2c(O)cc3c(c12)[C@H](CCl)CN3C(=O)/C=C/c1ccc(OC)cc1` [Example 74, Methyl (1S)-1-chloromethyl-5-hydroxy-3-[2-(4-methoxyphenyl)ethylene-1-ylcarbonyl]-7-trifluoromethyl-1,2,3,6-tetrahydropyrrolo[3,2-e]indole-8-carboxylate], 1.3 ng/mL (≈ 2.55 nM); that for `COC(=O)c1c(C(F)(F)F)[nH]c2c1[C@@]13C[C@@H]1CN(C(=O)c1cc4cc(NC(=O)OC(C)(C)C)ccc4[nH]1)C3=CC2=O` [Example 84, Methyl (7bR, 8aS)-2-[5-(t-butoxycarbonyl)amino-1H-indole-2-ylcarbonyl]-6-trifluoromethyl-1,2,8,8a-tetrahydrocyclopropa[c]pyrrolo[3,2-e]indole-4 (5H)-one-7-carboxylate], 1.7 ng/mL (≈ 2.98 nM).
